US20240383882A1 (Ecstasy LLC, priority 2020, published 2024)

System: male C57BL/6 mice
Assay: 55° C. warm-water tail-flick test (antinociception)
Format: in vivo
Settings: Mus musculus, sc, 0.5 h, compounds of Table I; s.c.; 30 min; 55° C. water; configuration tested as in Table II; read-out: ED50 (mg/kg) at 30 min on C57BL/6 mice in Warm-water Tail-flick Test
Procedure: Antinociception was assessed using the 55° C. warm-water tail-flick test. The latency to the first sign of a rapid tail flick was taken as the behavioral endpoint. Each mouse was first tested for baseline latency by immersing its tail in the water and recording the time to response. Mice not responding within 2 secs were excluded from further testing. Responsive mice were then s.c. administered the test compound and tested for antinociception at 30 min, 60 min, 90 min, and 120 min time points afterward. Antinociception was calculated using the following formula: percentage of antinociception=100×(test latency−control latency)/(20−control latency).
The following new compounds were also made and tested to determine the half maximal possible effective dose, or ED50 (mg/kg), in mice, using one of: the warm water tail-flick test as in Table II, spared nerve injury, chronic constriction injury, or Complete Freund's adjuvant induced inflammatory pain. The symbols in the last column are: + indicates ED 50>50 mg/kg; ++ indicates ED 50 is less than or equal to 30 mg/kg.

`Cc1ccc(C(C)(C)N2CCC(CCc3ccc(F)s3)(CN3CCOCC3)C2)cn1` (single isomer, unassigned) [Compound 106] and `Cc1ccc(C(C)(C)N2CCC(CCc3ccc(F)s3)(CNS(=O)(=O)N(C)C)C2)cn1` (single isomer, unassigned) [Compound 121] cannot be ordered by ED50: ≤ 30 mg/kg for the first, ≤ 30 mg/kg for the second.

`Cc1ccc(C(C)(C)N2CCC(CCc3ccc(F)s3)(c3nccn3C)C2)cn1` (single isomer, unassigned) [Compound 114] and `Cc1ccc(S(=O)(=O)NCC2(CCc3cc(C)c(C)s3)CCN(C(C)(C)c3ccc(C)nc3)C2)cc1` (single isomer, unassigned) [Compound 126] cannot be ordered by ED50: ≤ 30 mg/kg for the first, ≤ 30 mg/kg for the second.

Same assay, conditions: Mus musculus; half maximal effective dose in mice; using one of: warm water tail-flick test, spared nerve injury, chronic constriction injury, or Complete Freund's adjuvant induced inflammatory pain (not stated which per compound); read-out: Biological Activity (ED50)

Compared with `CC(C)(c1ccccn1)N1CC[C@@](CCc2ccc(C#N)c(F)c2)(C(O)C(F)(F)F)C1` (single isomer, unassigned) [Compound 103, 2-fluoro-4-(2-((R)-1-(2-(pyridin-2-yl)propan-2-yl)-3-((R or S)-2,2,2-trifluoro-1-hydroxyethyl)pyrrolidin-3-yl)ethyl) benzonitrile], `CC(C)(c1ccccn1)N1CC[C@@](CCc2ccc(F)c(F)c2)(C(O)C(F)(F)F)C1` (single isomer, unassigned) [Compound 150, (R or S)-1-((R)-3-(3,4-difluorophenethyl)-1-(2-(pyridin-2-yl)propan-2-yl)pyrrolidin-3-yl)-2,2,2-trifluoroethan-1-ol] is lower in ED50: > 50 mg/kg for the first, ≤ 30 mg/kg for the second.

`CC(C)(c1ccccn1)N1CC[C@@](CCc2ccc(C#N)cc2F)(C(O)C(F)(F)F)C1` (single isomer, unassigned) [Compound 116, 3-fluoro-4-(2-((R)-1-(2-(pyridin-2-yl)propan-2-yl)-3-((R or S)-2,2,2-trifluoro-1-hydroxyethyl)pyrrolidin-3-yl)ethyl) benzonitrile] and `CC(C)(c1ccccn1)N1CC[C@@](CCc2cccc(C#N)c2)(C(O)C(F)(F)F)C1` (single isomer, unassigned) [Compound 134, 3-(2-((R)-1-(2-(pyridin-2-yl)propan-2-yl)-3-((R or S)-2,2,2-trifluoro-1-hydroxyethyl)pyrrolidin-3-yl)ethyl) benzonitrile] cannot be ordered by ED50: > 50 mg/kg for the first, > 50 mg/kg for the second.

First: CC(C)(c1ccccn1)N1CC[C@@](CCc2ccc(C#N)cn2)(C(O)C(F)(F)F)C1 (single isomer, unassigned) [Compound 120, 6-(2-((R)-1-(2-(pyridin-2-yl)propan-2-yl)-3-((R or S)-2,2,2-trifluoro-1-hydroxyethyl)pyrrolidin-3-yl)ethyl) nicotinonitrile]
Second: CC(C)(c1ccccn1)N1CC[C@@](CCc2ccc(C#N)s2)(C(O)C(F)(F)F)C1 (single isomer, unassigned) [Compound 152, 5-(2-((R)-1-(2-(pyridin-2-yl)propan-2-yl)-3-((R or S)-2,2,2-trifluoro-1-hydroxyethyl)pyrrolidin-3-yl)ethyl)thiophene-2-carbonitrile]
The ED50 of the first is higher: > 50 mg/kg for the first, ≤ 30 mg/kg for the second.

`CC(C)(c1ccccn1)N1CC[C@@](CCc2ccccc2C#N)(C(O)C(F)(F)F)C1` (single isomer, unassigned) [Compound 135, 2-(2-((R)-1-(2-(pyridin-2-yl)propan-2-yl)-3-((R or S)-2,2,2-trifluoro-1-hydroxyethyl)pyrrolidin-3-yl)ethyl) benzonitrile] and `CC(C)(c1ccccn1)N1CC[C@@](CCc2ccc3ccoc3c2)(C(O)C(F)(F)F)C1` (single isomer, unassigned) [Compound 172, (R or S)-1-((R)-3-(2-(benzofuran-6-yl)ethyl)-1-(2-(pyridin-2-yl)propan-2-yl)pyrrolidin-3-yl)-2,2,2-trifluoroethan-1-ol] cannot be ordered by ED50: > 50 mg/kg for the first, > 50 mg/kg for the second.

First: CCOC(C(F)(F)F)[C@]1(CCc2ccc(C#N)s2)CCN(C(C)(C)c2ccccn2)C1 (single isomer, unassigned) [Compound 156, 5-(2-((R)-3-((R or S)-1-ethoxy-2,2,2-trifluoroethyl)-1-(2-(pyridin-2-yl)propan-2-yl)pyrrolidin-3-yl)ethyl)thiophene-2-carbonitrile]
Second: CCOC(C(F)(F)F)[C@]1(CCc2ccc(C#N)cc2)CCN(C(C)(C)c2ccc(C)nc2)C1 (single isomer, unassigned) [Compound 170, 4-(2-((R)-3-((R or S)-1-ethoxy-2,2,2-trifluoroethyl)-1-(2-(6-methylpyridin-3-yl)propan-2-yl)pyrrolidin-3-yl)ethyl) benzonitrile]
The ED50 of the first is lower: ≤ 30 mg/kg for the first, > 50 mg/kg for the second.

Compared with `CC(C)(c1ccccn1)N1CC[C@@](CCc2ccc3nonc3c2)(C(O)C(F)(F)F)C1` (single isomer, unassigned) [Compound 176, (R or S)-1-((R)-3-(2-(benzo[c][1,2,5]oxadiazol-5-yl)ethyl)-1-(2-(pyridin-2-yl)propan-2-yl)pyrrolidin-3-yl)-2,2,2-trifluoroethan-1-ol], `CC1(C)COC1[C@]1(CCc2ccc(C#N)cc2)CCN(Cc2ccccn2)C1` (single isomer, unassigned) [Compound 192, 4-(2-((R)-3-((R or S)-3,3-dimethyloxetan-2-yl)-1-(pyridin-2-ylmethyl)pyrrolidin-3-yl)ethyl) benzonitrile] is lower in ED50: > 50 mg/kg for the first, ≤ 30 mg/kg for the second.

`CC1(C)COC1[C@]1(CCc2ccc(C#N)cc2)CCN(Cc2cccnc2)C1` (single isomer, unassigned) [Compound 193, 4-(2-((R)-3-((R or S)-3,3-dimethyloxetan-2-yl)-1-(pyridin-3-ylmethyl)pyrrolidin-3-yl)ethyl) benzonitrile] and `Cc1ccc(CN2CC[C@@](CCc3ccc(C#N)cc3)(C3OCC3(C)C)C2)cn1` (single isomer, unassigned) [Compound 194, 4-(2-((R)-3-((R or S)-3,3-dimethyloxetan-2-yl)-1-((6-methylpyridin-3-yl)methyl)pyrrolidin-3-yl)ethyl) benzonitrile] cannot be ordered by ED50: ≤ 30 mg/kg for the first, ≤ 30 mg/kg for the second.

`CC1(C)COC1[C@]1(CCc2ccc(C#N)cc2)CCN(Cc2ccc(Cl)cc2)C1` (single isomer, unassigned) [Compound 195, 4-(2-((R)-1-(4-chlorobenzyl)-3-((R or S)-3,3-dimethyloxetan-2-yl)pyrrolidin-3-yl)ethyl) benzonitrile] and `N#Cc1ccc(CC[C@@]2(C3OCC3(F)F)CCN(Cc3ccccn3)C2)cc1` (single isomer, unassigned) [Compound 196, 4-(2-((R)-3-((R or S)-3,3-difluorooxetan-2-yl)-1-(pyridin-2-ylmethyl)pyrrolidin-3-yl)ethyl) benzonitrile] cannot be ordered by ED50: ≤ 30 mg/kg for the first, ≤ 30 mg/kg for the second.

Same assay, conditions: half maximal effective dose in mice; using one of: warm water tail-flick test, spared nerve injury, chronic constriction injury, or Complete Freund's adjuvant induced inflammatory pain (not stated which per compound)

In the case of `CC(C)(c1ccccn1)N1CC[C@@](CCc2ccc(F)c(F)c2)(C(O)C(F)(F)F)C1` (single isomer, unassigned) [Compound 151, (R or S)-1-((R)-3-(3,4-difluorophenethyl)-1-(2-(pyridin-2-yl)propan-2-yl)pyrrolidin-3-yl)-2,2,2-trifluoroethan-1-ol], the “Biological Activity (ED50)” value is reported as “+ (+ indicates ED 50>50 mg/kg)”.
With `CC(C)(c1ccccn1)N1CC[C@@](CCc2ccc(C#N)s2)(C(O)C(F)(F)F)C1` (single isomer, unassigned) [Compound 153, 5-(2-((R)-1-(2-(pyridin-2-yl)propan-2-yl)-3-((R or S)-2,2,2-trifluoro-1-hydroxyethyl)pyrrolidin-3-yl)ethyl)thiophene-2-carbonitrile] the “Biological Activity (ED50)” value was “+ (+ indicates ED 50>50 mg/kg)”.
